In patent US20090211893A1, “Photo-Activatable Amino Acids” (priority 2005, published 2009):

Key:
COS7 cells [1] = test: Cell viability after UV irradiation by trypan blue exclusion; format: cell-based, monkey
Method: COS7 (monkey kidney) cells were grown in DMEM high glucose (Gibco no. 11995; with L-glutamine and Na-pyruvate)+10% FCS. Typically, 3 cm2 of cells are needed for a cross-linking experiment with detection by western blotting. At about 70%, medium was replaced by LM-4 (DMEM lacking Met, Leu, Ile and Val and phenol red, supplemented with 5% dialyzed FCS) or by LM-2 (LM-4+1 mM of each Ile and Val). Photo-amino acids were added to a final concentration of 4 mM photo-Leu and photo-Ile, 1.7 mM photo-Met and cells were cultivated for further 22 h followed by washing with PBS and UV-irradiation using a 200 W high pressure mercury lamp (Oriel Photomax) with a glass filter to remove wavelengths shorter 310 nm. The samples were placed at a distance of 38 cm to the light source, corresponding to a illuminated area of 105 mm diameter. […] We used an irradiation time 1-3 min for experiments with living cells. […] Lysis of cells, SDS-PAGE and western blotting were done as described^33. For immunoprecipitation, cells were lysed in 20 mM Hepes/NaOH pH 7.4, 100 mM NaCl, 5 mM EDTA, 1% Triton X 100, 0.5% sodium deoxycholate, the lysate was cleared with protein-A beads and incubated with beads that were preincubated with polyclonal anti-myc or anti-HA antibody. Beads were collected and washed three times each with 20 mM Hepes/NaOH pH 7.25, 0.5% CHAPS and with 100 mM Tris-HCl pH 8.3, 150 mM NaCl, 2 mM EDTA, 0.1% w/v SDS, 0.5% w/v Nonidet P40, 0.5% w/v sodiumdeoxycholate. Proteins were eluted from beads by heating with reducing SDS-PAGE sample buffer.
(§1) Unnatural amino acids frequently are toxic to cells. To find out if this is the case for photo-amino acids of the invention, we monitored in COS7 cells protein biosynthesis by incorporation of [^3H]Phe and viability by trypan blue exclusion of cells grown in the presence or absence of the photo-amino acids photo-Leu, photo-Met and photo-Ile. Due to the lack of two essential amino acids in the growth medium, protein biosynthesis is reduced to about 65% of that in a full growth medium. […] Although cells grew slightly slower than in full growth medium, viability (Table 2) and cell morphology (not shown) were unaffected.

[2] = system: E. coli beta-galactosidase; test: Activity of beta-galactosidase expressed in cells grown with photo-amino acids; format: cell-based, monkey; details: COS 7 cells, 20 h in LM-2 with photo-amino acid; percent ± SD (n = 6) of value in DMEM + FCS
Text: We furthermore tested, whether proteins produced by cells grown with photo-amino acids are functional or not. For that, we transfected cells with GFP-fusion constructs of the small GTPase Rab5 and of mutated Rab5 that is constitutively activated (GFP-Rab5QL) or dominant negative (GFP-Rab5SN)^19 and monitored the GFP fluorescence by confocal microscopy. Four hours after transfection, when cells were switched to media containing photo-amino acids, no GFP signal was detectable (see FIG. 7). […] Both, staining intensity and localization were unaffected by the presence of either of the photo-amino acids. Taking into account a frequency of substitution of photo-Met for Met of 35% (see below) and the amounts of Met in Rab5 and GFP, more than 80% of the fusion protein will have photo-Met in both the Rab5- and the GFP-part of the fusion, more than 99% in at least one of the two parts. […] To corroborate this with a quantitative assay, we measured the activity of beta-galactosidase that was expressed in the absence or presence of photo-amino acids (see Table 4). Activity in LM-2 labeling medium was 79% of that in full DMEM. The addition of either of the three photo-amino acids or of a mixture of photo-Met and photo-Leu had no significant additional effect. E. coli beta-galactosidase contains 23 methionines of which on average 8 would be replaced by photo-Met; less than 0.01% of the protein are expected to have no substitution by photo-Met. We conclude that photo-amino acids are non-toxic to cultivated mammalian cells and can, at least partially, functionally replace branched chain amino acids and methionine.

COS7 cells [3] = test: Protein biosynthesis by incorporation of [3H]Phe; format: cell-based, monkey
Text: as §1

COS7 cells [4] = test: Cell viability after UV irradiation by trypan blue exclusion; format: cell-based, monkey; remark: listed apart in the source
Insig-1 and PGRMC1 = test: Photo-crosslinking of Insig-1 and PGRMC1 with immunoprecipitation and western blotting; format: cell-based, human; details: COS7 cells, UV-irradiated, IP anti-HA, blot anti-myc
Text: Cells were UV-irradiated or not irradiated as indicted, lysed and subjected to immunoprecipitation (IP) with anti-HA or anti-myc antibodies as indicated. Immunoprecipitated proteins were separated by SDS-PAGE and probed (WB) for the presence of cross-links with anti-myc antibody or anti-HA antibody as indicated. The small difference in apparent molecular weight of the cross-link is due to different percentage of SDS-PAGE gels used. The presence of uncrosslinked Insig-1 in the left lanes indicates non-covalent co-immunoprecipitation. The strong band in lanes 3 and 4 (IgG-HC) is crossreacting IgG heavy chain.
COS7 (monkey kidney) cells were grown in DMEM high glucose (Gibco no. 11995; with L-glutamine and Na-pyruvate)+10% FCS. […]
The methods of the invention have been applied to the study of protein-protein interactions between membrane proteins. […] To detect the cross-linked proteins, detergent extracts were immunoprecipitated for PGRMC1 with anti-HA antibody and precipitates analyzed for Insig-1 by western blotting with anti-myc antibody. If cells were grown in the absence of photo-Met, only a small amount of co-immunoprecipitated Insig-1, but no cross-linked band was detected (FIG. 6a, lane 2). […] An identical band was detected using the inverted order of detection, i.e. immunoprecipitation with anti-myc followed by blotting with anti-HA antibody (FIG. 6a, lane 3). […]

## CC1(CCC(N)C(=O)O)N=N1 [photo-Met, L-2-amino-5,5′-azi-hexanoic acid]
COS7 cells [1]; 1 min UV
  Cell viability: 99.4 ± 0.5%
COS7 cells [1]; 1 min UV + 1 h chase
  Cell viability: 96.1 ± 1.3%
COS7 cells [1]; 3 min UV
  Cell viability: 99.5 ± 0.4%
COS7 cells [1]; 3 min UV + 1 h chase
  Cell viability: 91.9 ± 6.8%
COS7 cells [1]; no UV + 1 h chase at 37 degree Celsius in PBS
  Cell viability: 99.4 ± 0.4%
COS7 cells [1]; no UV, percent ± SD of viable cells
  Cell viability: 99.8 ± 0.3%
[2]
  beta-galactosidase activity: 73 ± 5%
COS7 cells [3]; LM-2 medium supplement, value in full DMEM medium set to 100, average ± SD of triplicate
  Protein synthesis: 76.0 ± 6.4
COS7 cells [3]; addition to LM-2 medium
  effect on protein biosynthesis: increased protein biosynthesis
COS7 cells [4]; 10 min UV
  Cell viability: 99.4 ± 0.3%
COS7 cells [4]; 10 min UV + 1 h chase
  Cell viability: 91.9 ± 1.4%
COS7 cells [4]; 30 min UV
  Cell viability: 98.7 ± 0.4%
COS7 cells [4]; 30 min UV + 1 h chase
  Cell viability: 17.4 ± 5.3%
Insig-1 and PGRMC1
  Insig-1×PGRMC1 cross-linked band: a strong band appeared
